{"source": "paper PMC6130598", "about": "“Isolation, characterization, and in silico, in vitro and in vivo antiulcer studies of isoimperatorin crystallized from Ostericum koreanum” (Pharmaceutical Biology, 2016)", "molecular_target": "jack bean urease (Canavalia ensiformis, UniProt P07374)", "sequence (P07374 whole entry, looked up)": "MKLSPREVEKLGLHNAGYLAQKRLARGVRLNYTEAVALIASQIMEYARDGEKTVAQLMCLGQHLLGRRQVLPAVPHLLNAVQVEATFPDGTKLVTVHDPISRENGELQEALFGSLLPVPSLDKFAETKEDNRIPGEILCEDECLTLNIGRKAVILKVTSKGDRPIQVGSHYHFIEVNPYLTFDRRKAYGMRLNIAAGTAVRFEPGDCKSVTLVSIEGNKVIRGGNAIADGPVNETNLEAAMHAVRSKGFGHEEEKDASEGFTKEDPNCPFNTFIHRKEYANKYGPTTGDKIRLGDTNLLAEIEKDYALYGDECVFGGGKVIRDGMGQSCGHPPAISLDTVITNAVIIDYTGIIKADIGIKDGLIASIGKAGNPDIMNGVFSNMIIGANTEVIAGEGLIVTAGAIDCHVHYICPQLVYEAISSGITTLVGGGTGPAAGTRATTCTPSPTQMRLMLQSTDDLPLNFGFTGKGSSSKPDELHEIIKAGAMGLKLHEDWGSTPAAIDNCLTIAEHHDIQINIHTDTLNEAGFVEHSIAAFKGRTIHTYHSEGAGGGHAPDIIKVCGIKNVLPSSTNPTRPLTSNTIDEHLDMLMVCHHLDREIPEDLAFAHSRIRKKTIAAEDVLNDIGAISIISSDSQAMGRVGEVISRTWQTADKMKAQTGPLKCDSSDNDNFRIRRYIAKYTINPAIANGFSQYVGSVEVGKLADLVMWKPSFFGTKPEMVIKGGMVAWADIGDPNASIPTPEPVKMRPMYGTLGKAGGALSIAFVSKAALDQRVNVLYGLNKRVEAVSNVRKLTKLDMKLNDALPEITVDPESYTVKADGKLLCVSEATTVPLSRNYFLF", "experiment": "colorimetric urease inhibition assay (phenol/hypochlorite ammonia detection, […] nm)", "type": "biochemical", "data": [{"smiles": "CC(C)=CCOc1c2ccoc2cc2oc(=O)ccc12", "note": "[isoimperatorin]", "values": [{"measurement": "IC50", "value": 36.4, "unit": "µM"}]}, {"smiles": "NC(N)=S", "note": "[thiourea]", "values": [{"measurement": "IC50", "value": 33.6, "unit": "µM"}]}]}
